From patent US20200171030A1, “DUAL INHIBITORS OF ALK5 AND P38A MAP KINASE” (INTEGRAL BIOSCIENCES PRIVATE LIMITED, priority 2018, published 2020)
pIC50: −log10 of the molar value. Where a name gives a salt, the structure may show the parent alone. Read-outs that look alike come from different tables or passages of the source.

How the values were obtained:
[1] = system: Panc-1; assay: Cell viability assay (resazurin, 96 hr) in Panc-1; type: cell-based; details: Homo sapiens; Panc-1 pancreatic cell line, 96 hr exposure; read-out: Panc-1_Cell Viability_IC50
Description: (§1) Cell Viability Assay in MIA PaCa-2 and Panc-1
(§2) MIA PaCa-2 (ATCC® CRL-1420™) and Panc-1 (CRL-1469™), both pancreatic cell lines were seeded in their respective medium (DMEM, Cat #10569044 with 10% FBS, Cat #16000044; Gibco for Panc-1 and an additional 2.5% Horse Serum, Cat #16050122; Gibco for MIA PaCa-2) at a cell count of 3000 cells per 100 μl per well in a 96 well edge plate (167425; ThermoFisher). Cells were allowed to grow at 37° C. for 24 hr in 5% CO2 (culture conditions) in a Nuaire incubator (humidified). Serially diluted compounds (100 μl) were added to the culture plate 24 hr later and the cultures (MIA PaCa-2 and Panc-1) were further incubated in culture conditions for 96 hr. Experiment was terminated at the completion of 96 hr exposure to the drug by replacing the medium with 100 μl of 1 mM of resazurin (R7017; Sigma) prepared in culture medium and the plates were further incubated in culture conditions for 4 hr. Fluorescence was then measured using a multimodal plate reader (Biotek Synergy Neo) at an excitation wavelength of 535 nm and emission wavelength of 590 nm to obtain relative fluorescence units. Data analysis was done by subtracting the background fluorescence (only medium blank) value from each reading and then normalizing with the vehicle control (DMSO treated cells) to obtain percent survival/proliferation. Percent survival at different doses was used to calculate IC50 by fitting the curve to the “four-parameter variable slope logistic model” using Prism Graph Pad.

[2] = target: T1, TGFBR1 (ALK5) (Homo sapiens, UniProt P36897); assay: ALK5 kinase assay (LanthaScreen Terbium labeled TR-FRET); type: biochemical
T1 sequence (P36897 34-503): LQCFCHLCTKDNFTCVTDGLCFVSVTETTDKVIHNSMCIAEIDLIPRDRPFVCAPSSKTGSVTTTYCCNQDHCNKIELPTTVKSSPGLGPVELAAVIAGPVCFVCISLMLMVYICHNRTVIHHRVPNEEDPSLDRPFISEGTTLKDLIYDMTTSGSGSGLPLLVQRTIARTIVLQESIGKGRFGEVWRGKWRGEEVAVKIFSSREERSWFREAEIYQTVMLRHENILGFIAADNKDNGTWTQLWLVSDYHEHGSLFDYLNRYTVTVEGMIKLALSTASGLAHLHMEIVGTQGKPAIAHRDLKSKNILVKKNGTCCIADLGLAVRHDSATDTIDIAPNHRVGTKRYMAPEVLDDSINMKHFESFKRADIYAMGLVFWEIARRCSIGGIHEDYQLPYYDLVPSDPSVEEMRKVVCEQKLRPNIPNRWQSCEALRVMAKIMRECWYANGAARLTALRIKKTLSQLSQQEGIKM
Description: ALK5 Kinase Assay for IC50 Determination:
IC50 values of compounds against TGFβ kinase was determined by LanthaScreen™ Terbium Labeled TR-FRET assay. Kinase assays were performed in IX kinase buffer (# PV6135, Invitrogen, Life Technologies Grand Island, N.Y.) where total reaction volume was 10 μL in low-volume 384-well plates (#4511,Corning). Serially diluted compounds (3-fold) were incubated with TGFβ kinase (6 nM) for 10 min, following which a mixture of ATP (10 μM) (# A1852, Sigma, St-Louis, Mo.) and fluorescent-PolyGT substrate (200 nM) (# PV3610, Invitrogen, Life Technologies Grand Island, N.Y.) was added and incubated in dark at room temperature for 1 h. After 1 h, 10 μL stop solution containing Terbium labeled antibody (4 nM) (# PV3529, Invitrogen, Life Technologies Grand Island, N.Y.) and EDTA (# E5134, Sigma, St-Louis, Mo.) (20 mM) in TR-FRET dilution buffer (# PV3574, Invitrogen, Life Technologies Grand Island, N.Y.) was added. Readings were taken in a Synergy Neo Plate reader (BioTek, Winooski) at single excitation of 340 nm and Dual emission at 495 nm and 520 nm respectively.
The % activity of test samples was calculated as (Sample−Min)×100/(Max−Min). [Max: DMSO control, complete reaction with enzyme with DMSO and Min: No enzyme with DMSO]. Percent inhibition (100-% activity) was fitted to the “four-parameter logistic model” in XLfit for determination of IC50 values.

[3] = target: T2, MAPK14/p38α kinase (Homo sapiens, UniProt Q16539); assay: MAPK14/p38α kinase assay (LanthaScreen TR-FRET); type: biochemical; details: for inhibition at 0.1 µM: 100 nM concentration of compound, Table 4, read-out: Enzyme Activity MAPK14 (p38alpha) % Inh at 100 nM; for pIC50: Table 3, read-out: IC50 (P38 alpha)
T2 construct: purchased ThermoFisher PV3304
T2 sequence (Q16539 whole entry): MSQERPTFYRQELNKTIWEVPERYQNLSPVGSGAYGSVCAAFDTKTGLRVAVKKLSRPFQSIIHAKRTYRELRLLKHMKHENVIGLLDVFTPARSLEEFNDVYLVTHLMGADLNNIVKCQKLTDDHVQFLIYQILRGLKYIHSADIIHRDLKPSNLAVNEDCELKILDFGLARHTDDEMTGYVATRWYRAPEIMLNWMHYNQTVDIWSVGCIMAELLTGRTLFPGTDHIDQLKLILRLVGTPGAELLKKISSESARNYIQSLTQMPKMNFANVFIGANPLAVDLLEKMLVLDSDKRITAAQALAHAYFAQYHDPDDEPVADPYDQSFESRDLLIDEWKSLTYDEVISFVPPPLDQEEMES
Description: MAPK14/p38α Kinase Assay for IC50 Determination:
IC50 values of compounds against MAPK14/P38α kinase were determined by Lanthascreen based TR-FRET assay. Kinase reactions were performed in a 10 μL volume in low-volume 384-well plates. The concentration of substrate was maintained at 400 nM in the assay, and the kinase reaction buffer (1×; Cat # PV3189, ThermoFisher) consisted of 50 mM HEPES pH 7.5, 0.01% BRIJ-35, 10 mM MgCl2, and 1 mM EGTA. Serially diluted compounds (3-fold) in DMSO (0.5% in final reaction) were incubated with cocktail of MAPK14/p38α kinase (20 ng/ml; Cat # PV3304, ThermoFisher), Substrate GFP-ATF2 (19-96), (0.4 μM; Cat # PV4445, ThermoFisher), ATP (90 μM; Cat # PV3227, ThermoFisher) and buffer. Kinase reactions were allowed to proceed for 1 hour at room temperature before EDTA (10 mM; Cat # P2825, ThermoFisher) and LanthaScreen™ Tb-antipATF2 (pThr71) Antibody (2 nM; Cat # PV4451, ThermoFisher) in TR-FRET dilution buffer (IX; Cat # PV3574, ThermoFisher) were added. The plate was allowed to incubate at room temperature for 30 minutes before being read on a BMG Pherastar plate reader using the LanthaScreen™ filter block for LanthaScreen™ TR-FRET.
The resulting TR-FRET emission ratio was plotted against the concentration of inhibitor, and the data was fit to a sigmoidal dose-response curve with a variable slope. The IC50 for the inhibitor was calculated from the curve.

[4] = system: MIA PaCa-2; assay: Cell viability assay (resazurin, 96 hr) in MIA PaCa-2; type: cell-based; details: Homo sapiens; MIA PaCa-2 pancreatic cell line, 96 hr exposure; read-out: MiaPaCa-2_Cell Viability_IC50
Description: as §1, §2

## CC(C)c1cnc(-c2ccc(F)cc2)nc1Nc1ccnc2[nH]cc(N3CCNC(=O)C3)c12 [Compound No. 10, 4-(4-(2-(4-fluorophenyl)-5-isopropylpyrimidin-4-ylamino)-1H-pyrrolo [2,3-b]pyridin-3-yl) piperazin-2-one formate]
[1]
  pIC50: 5.56
[2]; Table 4, read-out: ALK5 IC50
  pIC50: 6.52
[3]
  inhibition at 0.1 µM: 28%
[4]
  pIC50: 5.46

## CC(C)c1ccc(-c2ccc(F)cc2)nc1Nc1ccnc2[nH]cc(C(=O)C(N)=O)c12 [Compound No. 27, 2-(4-(6-(4-fluorophenyl)-3-isopropylpyridin-2-ylamino)-1H-pyrrolo [2,3-b]pyridin-3-yl)-2-oxoacetamide hydrochloride]
[1]
  pIC50: < 4.52
[2]; Table 4, read-out: ALK5 IC50
  pIC50: < 5.30
[3]
  inhibition at 0.1 µM: 0%
[4]
  pIC50: < 4.52

## CC(C)c1cnc(-c2ccc(F)cc2)nc1Nc1ccnc2[nH]cc(C(=O)C(=O)N3CCNCC3)c12 [Compound No. 23, 1-(4-(2-(4-fluorophenyl)-5-isopropylpyrimidin-4-ylamino)-1H-pyrrolo [2,3-b]pyridin-3-yl)-2-(piperazin-1-yl) ethane-1,2-dione hydrochloride]
[1]
  pIC50: 5.23
[2]; Table 3, read-out: IC50 (ALK5)
  pIC50: 6.17
[3]
  pIC50: 5.89
[4]
  pIC50: 5.95

## CC(C)c1cnc(-c2ccc(F)cc2)nc1Nc1ccnc2[nH]cc(N3CCNC[C@H]3C)c12 [Compound No. 8, N-(2-(4-fluorophenyl)-5-isopropylpyrimidin-4-yl)-3-(2-methylpiperazin-1-yl)-1H-pyrrolo [2,3-b] pyridin-4-amine hydrochloride]
[1]
  pIC50: < 4.52
[2]; Table 3, read-out: IC50 (ALK5)
  pIC50: 7.02
[3]
  pIC50: 7.21
[4]
  pIC50: < 4.52

## CC(C)c1cnc(-c2ccc(F)cc2)nc1Nc1ccnc2[nH]cc(N3CCNC[C@@H]3C)c12 [Compound No. 7, N-(2-(4-fluorophenyl)-5-isopropylpyrimidin-4-yl)-3-(2-methylpiperazin-1-yl)-1H-pyrrolo [2,3-b] pyridin-4-amine hydrochloride]
[1]
  pIC50: 5.57
[2]; Table 3, read-out: IC50 (ALK5)
  pIC50: 6.81
[3]
  pIC50: 7.38
[4]
  pIC50: 5.61
